{"source": "patent US20130090296A1", "about": "“INJECTABLE FORMULATION OF A MACROCYCLIC LACTONE AND LEVAMISOLE” (priority 2010, published 2013)", "origin": "cited, not measured here", "conditions": "previously found", "data": [{"smiles": "c1ccc([C@H]2CN3CCSC3=N2)cc1", "note": "[levamisole]", "values": [{"measurement": "pH required for stability", "value": "less than 4"}]}]}
